Converted amounts (≈) assume the structure as drawn. The source made the active and inactive calls. No cut-off for these calls is given here.
What was measured:
[1] = Cytotoxicity against african green monkey CV1 cells assessed as zone of diameter at 0.1 ug/ml; assay type: cell-based; conditions: chlorocebus aethiops, cv-1
Human alphaherpesvirus 1 [2] = assay: Antiviral activity against HSV1 in african green monkey CV1 cells at 0.01 ug/ml by plaque reduction method; assay type: functional, organism-based; conditions: CV-1
[3] = system: Vesicular stomatitis virus; assay: Antiviral activity against VSV in BHK cells at 0.01 ug/ml by plaque reduction method; assay type: functional, organism-based
[4] = Cytotoxicity against african green monkey CV1 cells assessed as zone of diameter at 0.01 ug/ml; assay type: cell-based; conditions: chlorocebus aethiops, cv-1
[5] = Cytotoxicity against BHK cells; assay type: cell-based, Mesocricetus auratus; conditions: hamster
L1210 = assay: Cytotoxicity against mouse L1210 cells; assay type: cell-based
Human alphaherpesvirus 1 [6] = assay: Antiviral activity against HSV1 in african green monkey CV1 cells at 0.1 ug/ml by plaque reduction method; assay type: functional, organism-based; conditions: CV-1
Human alphaherpesvirus 1 [7] = assay: Antiviral activity against HSV1 in african green monkey CV1 cells at 1 ug/ml by plaque reduction method; assay type: functional, organism-based; conditions: CV-1

Row | Compound | inhibition zone (IZ) [1] | Activity (Human alphaherpesvirus 1 [2]) | Activity [3] | inhibition zone (IZ) [4] | Activity [5] | IC50 (L1210) | Activity [1] | Activity (Human alphaherpesvirus 1 [6]) | Activity (Human alphaherpesvirus 1 [7])
1 | C=C1[C@@H](O)[C@@H]2O[C@]3(CC[C@H](CC[C@@H](C)[C@@H]4CC(C)=C[C@@]5(O[C@H](C[C@@](C)(O)C(=O)O)CC[C@H]5O)O4)O3)CC[C@H]2O[C@@H]1[C@@H](O)C[C@H](C)[C@H]1O[C@@]2(CC[C@H]1C)OCCC[C@H]2C | 0 mm | inactive | Active | 0 mm | Toxic | 3 ng/mL (≈ 3.65 nM) | – | – | –
2 | C=C1[C@@H](O)[C@@H]2O[C@]3(CC[C@H](/C=C/[C@@H](C)[C@@H]4CC(C)=C[C@@]5(O[C@H](C[C@@](C)(O)C(=O)O)CC[C@H]5O)O4)O3)CC[C@H]2O[C@@H]1[C@@H](O)C[C@H](C)[C@H]1O[C@@]2(CC[C@H]1C)OCCC[C@H]2C [DINOPHYSISTOXIN 1] | – | inactive | – | 0 mm | Toxic | 2 ng/mL (≈ 2.44 nM) | Toxic | Active | Active
3 | C=C1[C@@H](O)[C@@H]2O[C@]3(CC[C@H](/C=C/[C@@H](C)[C@@H]4CC(C)=C[C@@]5(O[C@H](C[C@@](C)(O)C(=O)O)CC[C@H]5O)O4)O3)CC[C@H]2O[C@@H]1[C@@H](O)C[C@H](C)[C@H]1O[C@@]2(CCCCO2)CC[C@H]1C [OKADAIC ACID] | 22 mm | – | – | 0 mm | – | 5 ng/mL (≈ 6.21 nM) | – | – | –
